Experimental data taken from patent publication US9550763B2, “Heterocyclic ring and carbocyclic derivative” (Shionogi & Co., Ltd., priority 2012, dated 2017).

Columns and labels:
Format in all cases: cell-based
human P2X3 receptor [1] = molecular target: T1, human P2X3 receptor (Homo sapiens (Human), UniProt P56373); test: Evaluation of human P2X3 receptor inhibitory activity (Test Example 1-1, FDSS 3000, 96-well, 50 nM ATP); details: human P2X3 receptor in C6BU-1 cells; Test Example 1-1 (compounds I-001 to I-300)
T1 sequence (P56373 whole entry): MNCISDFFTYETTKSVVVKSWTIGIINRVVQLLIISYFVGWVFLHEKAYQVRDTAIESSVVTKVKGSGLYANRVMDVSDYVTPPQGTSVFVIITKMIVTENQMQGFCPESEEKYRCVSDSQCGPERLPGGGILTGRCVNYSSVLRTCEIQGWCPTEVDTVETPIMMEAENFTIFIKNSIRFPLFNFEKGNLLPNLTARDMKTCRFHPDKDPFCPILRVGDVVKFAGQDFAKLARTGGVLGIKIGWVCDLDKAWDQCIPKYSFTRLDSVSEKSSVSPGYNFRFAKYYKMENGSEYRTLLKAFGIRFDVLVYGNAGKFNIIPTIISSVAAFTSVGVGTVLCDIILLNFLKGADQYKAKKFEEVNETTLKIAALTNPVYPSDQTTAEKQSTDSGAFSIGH
Outline: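 C6BU-1 cells stably expressing human P2X3, loaded with 4 μM Fluo-3-AM (pH 7.5), preincubated 5 min with compound before 50 nM ATP challenge; fluorescence followed 4 min on FDSS 3000. IC50 derived from peak/baseline fluorescence ratio, no-compound as 0% and buffer-instead-of-ATP as 100% inhibition.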

Rat P2X3 receptor = Rat P2X3 receptor (Rattus norvegicus (Rat), UniProt P49654); test: Evaluation of rat P2X3 receptor inhibitory activity in the presence of rat serum albumin (RSA) (Test Example 3-2); details: rat P2X3 receptor in C6BU-1 cells
Chain of Rat P2X3 receptor (P49654 whole entry): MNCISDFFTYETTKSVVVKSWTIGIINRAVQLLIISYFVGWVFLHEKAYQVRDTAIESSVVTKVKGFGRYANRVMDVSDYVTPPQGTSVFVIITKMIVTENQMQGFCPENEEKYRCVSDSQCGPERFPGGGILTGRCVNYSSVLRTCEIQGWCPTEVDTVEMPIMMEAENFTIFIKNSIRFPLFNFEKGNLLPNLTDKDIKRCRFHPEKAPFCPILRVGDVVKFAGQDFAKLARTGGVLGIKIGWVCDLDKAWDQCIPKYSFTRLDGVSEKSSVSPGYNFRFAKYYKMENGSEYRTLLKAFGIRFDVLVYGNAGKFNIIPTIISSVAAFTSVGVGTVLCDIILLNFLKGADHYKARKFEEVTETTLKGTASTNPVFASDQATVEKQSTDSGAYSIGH
Experimental: Rat P2X3 receptor gene (GenBank accession number NM_031075) was expressed in C6BU-1 cell. The C6BU-1 cells were seeded in a 96-well microtiter plate at a concentration of 2500 cells/well and cultured in the medium (7.0% fetal bovine serum, 7.0% horse serum, and 1% antibiotic and antifungal in DMEM) for one day at 37° C. under 5% carbon dioxide atmosphere. The plasmid was transfected into the cells using transfection reagent FuGENEG (Roche). The transfected cells were cultured in the medium for one day at 37° C. under 5% carbon dioxide atmosphere. The medium was replaced with 4 μM Fluo-3-AM solution (pH7.5) containing 20 mM HEPES, […], 5.27 mM KCl, 0.9 mM MgCl2, 1.26 mM CaCl2, 5.6 mM D-glucose, 2.5 mM probenecid, 1% BSA, and 0.08% Pluronic F-127, and incubated at 37° C. under 5% dioxide carbon atmosphere for one hour. The plate was washed with washing buffer (20 mM HEPES, 137 mM NaCl, 5.27 mM KCl, 0.9 mM MgCl2, 1.26 mM CaCl2, 5.6 mM D-glucose, 2.5 mM probenecid, pH7.5), and each well was added with 40 μL of this buffer. The plate was placed in High-Throughput Screening System FDSS 3000 (Hamamatsu Photonics K.K.). Measurement of fluorescence intensity by FDSS 3000 was started, and 40 μL of DMSO solutions containing 1% RSA (final concentrations) and different concentrations of the test compound as prepared by dilution with dilution buffer (20 mM HEPES, 137 mM NaCl, 5.27 mM KCl, 0.9 mM MgCl2, 1.26 mM CaCl2, 5.6 mM D-glucose, 2.5 mM probenecid, 0.1% Pluronic F-127, pH7.5) were dispensed to each well through the built-in automatic dispenser. Five minutes after, 50 nM ATP solution (50 μL) prepared by dilution with the dilution buffer was dispensed through the built-in automatic dispenser, and the measurement of fluorescence intensity was continued for 4 min. For each well, the specific maximum fluorescence intensity was calculated as the ratio of the maximum fluorescence intensity after addition of the ATP solution to the fluorescence intensity at the starting of the measurement. The 50% inhibitory concentration (IC50) was calculated under the assumption that the specific maximum fluorescence intensity without test compound is 0% inhibition and that the specific maximum fluorescence intensity when the dilution buffer was added in place of ATP solution is 100% inhibition, to evaluate the inhibitory activity of the test compound. FDSS software (Hamamatsu Photonics K.K.) was used for calculation of the specific maximum fluorescence intensity. IC50 was calculated using Microsoft Excel (Microsoft Corporation) and XLfit (idbs Ltd.).

human P2X3 receptor [2] = molecular target: T1, human P2X3 receptor; test: Evaluation of human P2X3 receptor inhibitory activity (Test Example 1-2, FLIPR 384, 384-well, 150 nM ATP); details: human P2X3 receptor in C6BU-1 cells; Test Example 1-2 (compounds I-301 to I-483); read-out: P2X3 IC50
Outline: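 Human P2X3 stably expressed in C6BU-1 cells, Fluo-3-AM loaded, read on FLIPR at pH 7.5 HEPES buffer. Compound added 5 min before 150 nM ATP; peak/baseline fluorescence over 4 min gave inhibition (buffer instead of ATP = 100%), from which IC50 was derived.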

| SMILES | IC50 (human P2X3 receptor [1]) | IC50 (Rat P2X3 receptor) | IC50 (human P2X3 receptor [2]) |
| --- | --- | --- | --- |
| Cc1ccc(Oc2ccc(Nc3nc(=O)c(C(=O)NC4CCOCC4)cn3Cc3ccc(Cl)cc3)cc2)nn1 [Compound I-159] | 7 nM | 23 nM | – |
| Cc1cc(/N=c2\[nH]cc(NC(=O)C3CCOCC3)c(=O)n2Cc2ccc(Cl)cc2)ccc1Oc1ncccc1F [Compound I-162] | 3 nM | 13 nM | – |
| CCCn1c(=O)cc(Nc2ccc(Oc3cccc(C(=O)O)n3)cc2)n(Cc2ccc(Cl)cc2)c1=O [Compound I-165] | 3 nM | 17 nM | – |
| O=c1c(NC(=O)[C@H]2C[C@H](O)C2)c[nH]/c(=N\c2ccc(Oc3ccc(F)cn3)cc2)n1Cc1ccc(Cl)cc1 [Compound I-215] | 4 nM | 5 nM | – |
| N#Cc1cnc(Oc2ccc(Nc3nc(=O)c(C(=O)NC4CCOCC4)cn3Cc3ccc(Cl)cc3)cc2)cn1 [Compound I-230] | 9 nM | 10 nM | – |
| Cc1cc(Oc2ccc(/N=c3\[nH]cc(NC(=O)C4CCOCC4)c(=O)n3Cc3ccc(Cl)cc3)cc2C)no1 [Compound I-304] | – | 12 nM | 12 nM |
| Cc1ccc(Oc2ccc(/N=c3\[nH]cc(NC(=O)[C@H]4C[C@H](O)C4)c(=O)n3Cc3ccc(Cl)cc3)cc2)nn1 [Compound I-308] | – | 5 nM | 5 nM |
| CCC(=O)Nc1c[nH]/c(=N\c2ccc(Oc3ccc(C(N)=O)nn3)cc2)n(Cc2ccc(Cl)cc2)c1=O [Compound I-309] | – | 22 nM | 9 nM |
| Cc1noc(-c2c[nH]/c(=N\c3ccc(Oc4cccc(C(=O)O)n4)cc3)n(Cc3ccc(Cl)cc3)c2=O)n1 [Compound I-313] | – | 24 nM | 5 nM |
| Cc1nc(Nc2cc(=O)n([C@@H](C)[C@@H](C)C(=O)O)c(=O)n2Cc2ccc(Cl)cc2)ccc1Oc1ccc(F)nc1 [Compound I-339] | – | 12 nM | 9 nM |
| O=C(O)c1cc(Oc2ccc(/N=c3\[nH]cc(Nc4ccon4)c(=O)n3Cc3ccc(Cl)cc3)cc2)ccn1 [Compound I-354] | – | 14 nM | 7 nM |
